For test [1], the target named is T1, GST-HAB1 with 6×-His-PYR1^MANDI (Arabidopsis thaliana, UniProt O49686, F108A/F159L/K59R/S122G/V81I/Y58H).
T1 construct: made in house; host or cells: E. coli BL21[DE3]pLysS (receptor)
The experiment in a line: PP2C enzyme inhibition assay (4-methylumbelliferyl-phosphate). Conditions: 100 nM 6×-His-PYR1^MANDI, 50 nM GST-PP2C; read-out: IC50, mandipropamid mediated inhibition of HAB1. It is filed as biochemical. The method, then:
(§1) We next characterized the effects of recombinant PYR1^MANDI on PP2C activity using the fluorogenic substrate 4-methylumbelliferyl-phosphate. Recombinant receptor and PP2C proteins were prepared as described above and used to examine PP2C inactivation in response to mandipropamid or ABA. Enzyme inhibition assays were conducted using the following assay conditions: 100 nM 6×-His-PYR1^MANDI, 50 nM GST-PP2C, 100 mM Tris-OAc (pH 7.9), 100 mM NaCl, 1 mM MnCl2, 1% β-mercaptoethanol. […] The three ABA-regulated clade A PP2Cs, GST-HAB1, GST-ABI1 and GST-ABI2 were each tested under the same enzyme conditions in separate reactions. The assays were conducted at a variety of mandipropamid or ABA concentrations so that IC50 values could be determined. […] Thus, the PYR1^MANDI receptor is highly sensitive to activation by mandipropamid and interacts with multiple clade A PP2Cs in response to mandipropamid. This high level of sensitivity is consistent with the yeast two hybrid results described above in which a detectable interaction between PYR1^MANDI and HAB1 could be observed at concentrations as low as 2 nM (see Table 1). We note that the yeast two hybrid reporter systems requires only a small percentage of PYR1^MANDI receptors to bind HAB1 for an interaction signal and is therefore a potentially more sensitive indicator than in vitro assays. […] Thus these in vitro assays confirm that PYR1^MANDI is selectively activated by mandipropamid.

The target of test [2] is T2, GST-ABI2 with 6×-His-PYR1^MANDI (Arabidopsis thaliana, UniProt O49686, F108A/F159L/K59R/S122G/V81I/Y58H).
T2 construct: made in house; host or cells: E. coli BL21[DE3]pLysS (receptor)
T2 sequence (O49686 whole entry Y58H/K59R/V81I/F108A/S122G/F159L): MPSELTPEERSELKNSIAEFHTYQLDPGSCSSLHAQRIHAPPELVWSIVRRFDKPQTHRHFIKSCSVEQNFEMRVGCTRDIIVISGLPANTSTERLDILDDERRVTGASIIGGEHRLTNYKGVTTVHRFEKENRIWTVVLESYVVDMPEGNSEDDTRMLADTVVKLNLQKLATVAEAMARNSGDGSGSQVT
T2 sequence (O04719 whole entry partner): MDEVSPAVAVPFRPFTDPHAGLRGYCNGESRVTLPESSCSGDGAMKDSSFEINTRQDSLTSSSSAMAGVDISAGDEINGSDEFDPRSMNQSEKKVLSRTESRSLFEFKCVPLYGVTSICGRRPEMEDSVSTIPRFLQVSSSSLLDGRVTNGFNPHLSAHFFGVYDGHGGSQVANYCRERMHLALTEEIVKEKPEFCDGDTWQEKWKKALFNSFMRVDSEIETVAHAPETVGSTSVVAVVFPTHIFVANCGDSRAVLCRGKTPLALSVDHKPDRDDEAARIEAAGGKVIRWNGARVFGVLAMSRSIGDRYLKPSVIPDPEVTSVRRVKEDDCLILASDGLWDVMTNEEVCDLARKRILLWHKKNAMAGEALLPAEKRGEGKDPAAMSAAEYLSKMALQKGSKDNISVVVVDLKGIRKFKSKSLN
The test is described as above. The test is classed as biochemical. Conditions: 100 nM 6×-His-PYR1^MANDI, 50 nM GST-PP2C; read-out: IC50, mandipropamid mediated inhibition of ABI2. The method, then:
as §1

Test [3] deals with T3, GST-ABI1 with 6×-His-PYR1^MANDI (Arabidopsis thaliana, UniProt O49686, F108A/F159L/K59R/S122G/V81I/Y58H).
T3 construct: made in house; host or cells: E. coli BL21[DE3]pLysS (receptor)
T3 sequence (O49686 whole entry Y58H/K59R/V81I/F108A/S122G/F159L): as the sequence (O49686 whole entry Y58H/K59R/V81I/F108A/S122G/F159L) above
T3 sequence (P49597 whole entry partner): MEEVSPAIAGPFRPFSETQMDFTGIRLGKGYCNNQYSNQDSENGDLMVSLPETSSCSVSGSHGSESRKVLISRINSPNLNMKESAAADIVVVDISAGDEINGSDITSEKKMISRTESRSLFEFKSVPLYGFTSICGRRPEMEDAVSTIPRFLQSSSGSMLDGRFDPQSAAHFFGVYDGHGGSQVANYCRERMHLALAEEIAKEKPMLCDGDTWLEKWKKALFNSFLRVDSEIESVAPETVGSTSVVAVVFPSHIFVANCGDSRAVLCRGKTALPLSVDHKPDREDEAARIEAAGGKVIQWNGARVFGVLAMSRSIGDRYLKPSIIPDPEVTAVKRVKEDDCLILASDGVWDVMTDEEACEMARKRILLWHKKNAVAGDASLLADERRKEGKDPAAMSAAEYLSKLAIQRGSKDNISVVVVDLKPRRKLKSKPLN
The description is as above. The test is classed as biochemical. The conditions noted are these: 100 nM 6×-His-PYR1^MANDI, 50 nM GST-PP2C; read-out: IC50, mandipropamid mediated inhibition of ABI1. The method, then:
as §1

Test [4] deals with MDP1 and MDP2 transgenic plants. The experiment in a line: qRT-PCR of ABA-regulated genes RD29B and RAB18. The test is classed as in vivo, Arabidopsis. Conditions: MDP1 and MDP2, 2 μM mandipropamid, 8 hours. The method, then:
(§2) One of ABA's major effects is to regulate gene expression. We therefore examined the effects of ABA and mandipropamid on gene expression in wild type, PYR-OX, MDP1 and MPD2 transgenic plants. Seed of the wild type or transgenic lines were surface sterilized, stratified for 4 days at 4° C. and then grown for 10 days at room temperature under continuous illumination in a liquid culture consisting of 0.5×MS salts and 0.5% sucrose and grown with continuous shaking to provide aeration. After 10 days, the culture solutions were adjusted to contain 50 μM ABA, 2 μM mandipropamid, or a mock treatment. After 8 hours exposure to the test compounds RNA was isolated using RNAEasy™ Plant RNA isolation kit (Qiagen, USA) and treated with DNAse. The purified RNA was utilized in qRT-PCR reactions using primers for the ABA-regulated genes RD29B or RAB18. Biological triplicate and triple technical replicate measurements were conducted. To perform qRT-PCR analyses, cDNA was generated from 5 μg of total RNA using superscript reverse transcriptase III (Invitrogen, USA), in reaction mixture containing a oligo-dT20 (SEQ ID NO:110) and a ribosomal RNA primer. Real-time quantitative PCR analysis was performed by ΔCt method of relative quantification. PCR mixtures contained cDNA, Maxima® SYBR green/Fluorescein qPCR master mix (Fermentas, USA) and 330 nM of each gene-specific primer. RT-PCRs were conducted using a BioRad CFX96 Real-Time PCR System and the data were processed using the BioRad CFX Manager software (BioRad, USA). PCRs were performed under the following cycling conditions: 3 min at 95° C., followed by 40 cycles of 10 sec at 95° C., 10 sec at 55° C. and 30 sec at 72° C. in 96-well optical reaction plates (BioRad, USA). The specificity of amplicons was verified by melting curve (disassociation) analysis (60-95° C.) after 40 cycles. Input cDNA was normalized using an internal control gene, PEX4 (AT5G25760).
On the technique in general: In qPCR the cycle at which signal appears reflects the starting amount.

The next test concerns wild type. The experiment in a line: qRT-PCR of ABA-regulated genes RD29B and RAB18. It is filed as in vivo, Arabidopsis. Conditions: 2 μM mandipropamid, 8 hours. The method, then:
as §2

The subject of another test is PYR1-OX. Description: qRT-PCR of ABA-regulated genes RD29B and RAB18. The test is classed as in vivo, Arabidopsis. Conditions: 2 μM mandipropamid, 8 hours. The method, then:
as §2

The subject of test [5] is homozygous PYR1^MANDI expressing transgenic plants. Description: thermal imaging of leaf temperature. It is filed as in vivo, Arabidopsis. The method, then:
To investigate if the system is sufficient to control ABA responses in vegetative tissues, we generated homozygous transgenic lines for two 35S-driven lines (E15 and E16) and 2 RBCS-driven lines (F29 and F34). These materials were grown along side wild type plants and a previously constructed 35S::GFP-PYR1 over expression line (Park et al., 2009). These plants were grown until three weeks old and then treated with a solution containing either 2 μM mandipropamid and 0.02% Silwet or a mock treatment containing 0.02% Silwet and the mandipropamid carrier solvent (DMSO). 24 hours after treatment, the leaf temperatures were examined using a thermal imaging camera. It is well known that ABA-induced guard cell closure reduces transpiration, which leads to increases in leaf temperatures. […] Since guard cell aperture is the primary determinant of transpiration rates, thermal imaging is a useful way to indirectly infer relative transpiration rates and guard cell aperture at the whole plant level. As is shown in FIG. 3, mandipropamid treatment of homozygous PYR1^MANDI expressing transgenic plants leads to large changes in leaf temperature (˜2° C. increase) within 24 hours of treatment.
Treatment of plants with abscisic acid leads to the induction of CYP707A cytochrome P450s, which hydroxylate ABA at its 8′ methyl group. […] Thus, ABA applications lose effect over time due to metabolic inactivation. Given that mandipropamid is a non-native molecule, it is likely not a degraded by the CYP707A enzyme system. […] Plants were treated with mock, 1, 5 or 20 μM mandipropamid and then analyzed by thermography at 4 hours, 3 and 6 days after treatment. […] Additionally, control and 1 μM treated plants flowered during the experiment while flowering was prevented in the 5 μM and 20 μM treated mandipropamid plants.

Structures are written as SMILES. Bounds are passed on as bounds.

T1 sequence (Q9CAJ0 23-511): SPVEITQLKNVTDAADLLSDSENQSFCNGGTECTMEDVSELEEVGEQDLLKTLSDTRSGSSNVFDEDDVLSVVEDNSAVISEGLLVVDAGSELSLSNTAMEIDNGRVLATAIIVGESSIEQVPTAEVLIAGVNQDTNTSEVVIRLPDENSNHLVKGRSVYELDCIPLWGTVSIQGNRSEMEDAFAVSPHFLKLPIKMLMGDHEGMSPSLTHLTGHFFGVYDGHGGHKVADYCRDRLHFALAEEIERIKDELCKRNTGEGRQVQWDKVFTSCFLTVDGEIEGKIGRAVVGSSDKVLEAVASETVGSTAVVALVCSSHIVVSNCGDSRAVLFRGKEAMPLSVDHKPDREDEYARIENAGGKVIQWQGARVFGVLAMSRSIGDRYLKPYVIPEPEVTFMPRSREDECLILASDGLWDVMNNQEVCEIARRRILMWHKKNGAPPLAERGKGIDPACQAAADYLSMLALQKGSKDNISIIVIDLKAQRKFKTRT
T1 sequence (O49686 whole entry Y58H/K59R/V81I/F108A/S122G/F159L): as the sequence (O49686 whole entry Y58H/K59R/V81I/F108A/S122G/F159L) above

Consider `C#CCOc1ccc(CCNC(=O)C(OCC#C)c2ccc(Cl)cc2)cc1OC` (stereo not shown) [Mandipropamid, mandipropamid], for which the IC50 in test [1] is 32.2 nM; in test [2] it was 75.5 nM; in test [3], 26.8 nM. Further, the “transcription of RD29B and RAB18” value in test [4] is “high-level transcription”; in the test with wild type it was “does not do so”; in the test on PYR1-OX, “does not do so”. Also, the “flowering during the experiment” value in test [5] (1 μM mandipropamid) is listed as “flowered”; in test [5] (5 μM mandipropamid) it was “prevented”; in test [5] (20 μM mandipropamid) it was “prevented”. In test [5] (2 μM mandipropamid, within 24 hours of treatment), this compound registered a leaf temperature increase of roughly 2 °C. Moreover, the “persistence of increased leaf temperature” value in test [5] (5 μM mandipropamid) and in test [5] (20 μM mandipropamid) was “at least 6 days” in each case. In test [5] (mandipropamid treatment), the “time to increased leaf temperature after treatment” value is no more than 4 h.

As a reminder, the IC50 is the midpoint of a concentration-inhibition curve.
